Measured values taken from US8945596B2, “Antimicrobial composition” (Conopco, Inc., priority 2008, dated 2015).

What was measured:
Format in all cases: cell-based
[1] = tested on: Entereobacter; assay: Viable bacteria remaining after 15 seconds of contact with the actives; settings: 15 seconds contact, culture added 6.87
Experimental: (§1) About 10^7 bacterial cells (E. coli ATCC 10536) were taken in a test tube and contacted with various compositions for a period of 15 seconds. Bacteria were taken out after 15 seconds of contact and presence of viable cells was determined by serial dilution and plating on agar plates. The data is presented in log (Viable E. Coli) which is the log10 of the number of viable E. Coli remaining after 15 seconds of contact. Thus if 10^4 remained, log (Viable E. Coli) is 4.
(§2) The combination of thymol (0.2%) and terpineol (0.5%) was tested for its efficacy in inhibiting growth of various other bacteria after they are contacted with this combination for about 15 seconds. Similar experiments were carried out with another well known antibacterial active TCC (trichloro carbanilide). The experiments were carried out similar to those of Examples 1 to 3 and the data on the viable bacteria remaining after contact with the actives for 15 seconds is summarized in Table 3

[2] = tested on: Klebsiella; assay: as above; settings: 15 seconds contact, culture added 7.35
Experimental: as §1, §2

[3] = tested on: Vibrio cholerae; assay: as above; settings: 15 seconds contact, culture added 7.58
Experimental: as §1, §2

[4] = tested on: Salmonella; assay: as above; settings: 15 seconds contact, culture added 7.63
Experimental: as §1, §2

[5] = tested on: E. coli ATCC 10536; assay: Bacterial kill in test tube after 15 seconds of contact, serial dilution and plating; settings: log10 of viable E. coli remaining after 15 seconds of contact; about 10^7 cells initially; water as carrier
Experimental: Compositions comprising each individual active and a combination were prepared with water as a carrier (details given in Table 1 below). Terpineol and thymol were obtained from […] aromas, India. […] The data is presented in log (Viable E. Coli) which is the log10 of the number of viable E. […] Eucalyptol and linalool were obtained from Fluka. […] The data in log (Viable E.

[6] = tested on: Streptococcus mutans ATCC 25175; assay: Oxoplate oxygen depletion growth assay; settings: no oxygen depletion over 18 hours
Experimental: (§3) The anti-bacterial activity of the composition of the invention against a commonly found Gram positive oral bacteria viz. Streptococcus mutans ATCC 25175 and a Gram negative oral bacteria Neisseria subflava ATCC 19243) was determined. This was investigated using Oxoplates. Oxoplates monitor oxygen depletion within the reaction system (containing bacteria, broth and actives).
(§4) A Gram positive (Streptococcus mutans ATCC 25175) and a Gram negative (Neisseria subflava ATCC 19243) bacterium were selected for testing the active solutions. Both bacteria were grown on BHIS agar plates for 24 hours at 37° C./15% CO2, they were then suspended in PBS to a McFarland standard of 2 (˜6×10^8 cells).
(§5) Each active was dissolved in 50% ethanol solutions for testing. All solutions were made at 10 times concentrated to allow for dilution in the plate. Reduced concentrations were used for N. subflava due to the greater sensitivity of this organism to biocides,
(§6) The following components were placed into the wells of the Oxoplates, • 170 µl BHI broth • 20 µl test solution • 10 µl bacteria
(§7) The broth was placed into the Oxoplate first, followed by the test solution, and then the bacterium. Water or 50% ethanol controls were also used in each plate. All solutions were tested in replicates of four. The plates were placed into the fluorescent plate reader, incubated at 37° C. and measured every 15 minutes for 18 hours. The sensors on the bottom of the wells were measured at 2 wavelengths, • Indicator (650/[…]) • Reference (590/540 nm).
(§8) The oxygen concentration was calculated using these values and a calibration performed for maximum and minimum oxygen concentration. A graph was then plotted of the oxygen depletion curves over the 18 hour period, which was used to determine the level at which the bacteria start to deplete the oxygen.

[7] = tested on: Neisseria subflava ATCC 19243; assay: Oxoplate oxygen depletion growth assay; settings: no oxygen depletion over 18 hours
Experimental: as §3, §4, §5, §6, §7, §8

O=C(Nc1ccc(Cl)cc1)Nc1ccc(Cl)c(Cl)c1 [0.2% TCC, trichloro carbanilide]
viable bacteria remaining [1]: 6.87 Log (CFU/ml) | viable bacteria remaining [2]: 7.28 Log (CFU/ml) | viable bacteria remaining [3]: 7.20 Log (CFU/ml) | viable bacteria remaining [4]: 7.33 Log (CFU/ml)

Cc1ccc(C(C)C)c(O)c1 [Example 1, Thymol]
Log (Viable E. coli) [5]: 3.1

Cc1ccc(C(C)C)c(O)c1 [Example 25, Thymol]
Concentration of active (wt %) at no growth ([6]; thymol concentration): Thymol (0.08%) wt %

Cc1ccc(C(C)C)c(O)c1 [Example 28, Thymol]
Concentration of active (wt %) at no growth ([7]; thymol concentration): Thymol (0.02%) wt %

Terpineol [Example 2]
Log (Viable E. coli) [5]: 6.3

Terpineol [Example 24]
Concentration of active (wt %) at no growth ([6]; terpineol concentration): Terpineol (0.4%) wt %

Terpineol [Example 27]
Concentration of active (wt %) at no growth ([7]; terpineol concentration): Terpineol (0.08%) wt %
